{
  "source": "paper PMC4586312",
  "about": "(Nanomedicine : nanotechnology, biology, and medicine, 2015)",
  "key": {"cathepsin B [1]": {"target": "T1, cathepsin B (Homo sapiens, UniProt P07858)", "test": "fluorogenic substrate cleavage assay", "assay_type": "biochemical"}, "cathepsin B [2]": {"target": "T1, cathepsin B", "test": "fluorescence protease assay", "assay_type": "biochemical"}},
  "data": [
    {"smiles": "Cc1cc(=O)oc2cc(NC(=O)[C@H](CCCNC(=N)N)NC(=O)[C@H](CC(C)C)NC(=O)OCc3ccccc3)ccc12", "note": "[Z-Leu-Arg-AMC]", "values": [
      {"measurement": "fluorogenic substrate cleavage assay", "setting": "cathepsin B [1]", "value": "The cleavage at the site between arginine and AMC dye by cathepsin B resulted in the increase of fluorescence intensity"}
    ]},
    {"smiles": "CC(C)C[C@H](NC(=O)OCc1ccccc1)C(=O)N[C@H](C=O)C[C@@H]1CCNC1=O", "note": "[GC-373]", "values": [
      {"measurement": "IC50", "setting": "cathepsin B [2]", "value": 9.67, "unit": "nM"}
    ]}
  ]
}
